Data reported in patent US20260335341A1, “METHODS FOR TREATING PAEDIATRIC NEUROLOGICAL DISORDERS” (Neurotech International Limited, priority 2022, published 2026).
Values joined by “and” are separate entries in the source; they are usually repeats but may differ in a detail not shown here. Equal values may be shown once. Read-outs that look alike come from different tables or passages of the source.

Tests used:
[1] = tested on: excitotoxic cell injury paradigm; experiment: Cell death in an excitotoxic cell injury paradigm; type: cell-based, human
Protocol: Neuronal viability was quantified using MTT [3-(4,5-dimethylthiazol-2-yl-)-2,5-diphenyl-2H-tetrazolium bromide; Sigma]. […] Cellular excitotoxicity was achieved via glutamate activation (3 mM).

COX-2 [2] = experiment: COX-2 expression, immunohistochemistry, human derived microglial cells (Example 4); type: cell-based; details: 2 μg/ml, N = 9
Protocol: (§1) Immunohistochemistry (Protein Level) Assay: Cells were fixed for 10 min with 4% paraformaldehyde (PFA) in PBS. After 3×5 minutes washing with PBS, cells were incubated with primary antibodies (anti-COX2) 1:1000 overnight at 4 °C, and after 3×5 minutes washing in PBS, cells were then incubated in appropriate fluorescent secondary antibody 1:250 (Invitrogen) for 2 hours at room temperature. After a final wash, as previous, cells nuclei were sained with DAPI in the mounting media. Photomicrographs were taken of the cells in three fields of view per well from duplicate wells and analysed using Fiji for area coverage of each marker.
(§2) The tubes are then placed in a sonication bath for 10 mins at 35-40 C. Upon completion of the sonication samples are then placed in a tray shaker (200 rpm) for 30 minutes at room temperature. Once completed the samples are then centrifuged at 4400 rpm for 5 minutes. The supernatant is collected for testing and development.
(§3) For the CBD sample, a pure standard (in powder form) was used. CBD 98% isolate was purchased as a reference standard from LGC Standards (London UK) (CAS No. 13956-29-1). The CBD standard reference was prepared at concentration of 1 mg/ml (in acetonitrile). CBD dilutions were made in acetonitrile as follows: 2 μg/ml; 6 μg/ml; and 0.1 μg/ml.

IL-12 = IL-12 level in microglial media, multiplex cytokine assay (Example 4); type: cell-based, human; details: 2 μg/ml; interleukin and interferon activation; control 99.91
Protocol: (§4) Multiplex Cytokine/Chemokine Assay: Microglia media harvested following treatment initiation was centrifuged briefly to remove particulates (300 g for 10 min). Cytokine and chemokine levels in the microglial media were measured using a Bio-Plex 200 with a 96-well magnetic plate assay according to the manufacturer's instructions (Bio-Rad). Cytokines and chemokines measured included IL-1α, IL-1β, IL-2, IL-6, IL-10, IL-12 (p70), IL-13, G-CSF, GM-CSF, IFNγ, TNFα, CXCL1 (KC), CCL2 (MCP-1), and CCL5 (RANTES). All samples were run in duplicate and data were analyzed with the Bio-Plex Manager software.
as §2, §3

TNF-alpha [3] = experiment: TNF-alpha level in microglial media, multiplex cytokine assay (Example 4); type: cell-based, human; details: 2 μg/ml; interleukin and interferon activation
Protocol: as §4, §2, §3

COX-2 [4] = experiment: COX-2 activity, immunohistochemistry, human derived microglial cells, diclofenac combination (Example 6); type: cell-based; parameters: unit not given here; details: 2 μg/ml each, I&I inflammation activation, N = 9
Protocol: as §1, with “Human derived microglial cells” for “Immunohistochemistry (Protein Level) Assay: Cells”
COX-2 is measured using the immunohistochemistry assay—as described above. […] In the treatment groups, these cells are also treated with various treatments and COX-2 expression is then assessed following these treatments (1 hr after treatment).
In this example, ethanol extraction was used. […] The tubes are then placed in a sonication bath for 10 mins at 35-40 C. Upon completion of the sonication samples are then placed in a tray shaker (200 rpm) for 30 minutes at room temperature. Once completed the samples are then centrifuged at 4400 rpm for 5 minutes. The supernatant is collected for testing and development.
For the CBD sample, a pure standard (in powder form) was used. CBD 98% isolate was purchased as a reference standard from LGC Standards (London UK) (CAS No. 13956-29-1). […]

human microglial cells = experiment: DAPI cell viability stain (Example 4); type: cell-based
[5] = tested on: cannabinoid receptor type 1 (CB1); details: cited from earlier work
[6] = tested on: cannabinoid receptor type 2 (CB2); details: cited from earlier work
neutrophil = details: cited from earlier work
[7] = animals; cited from earlier work
[8] = Stability of NTI164 oil formulation at room temperature (UPLC)
TNF-a = TNF-a release from BV2 microglia, celecoxib combination (Example 7); type: cell-based; details: Celebrex 5 uM; NTI164 7.5 uM (as headed); combination Celebrex 5 uM + NTI164 7.5 ug/ml; activated control 45
Protocol: (§5) The immortalized microglia cell line, BV2, was purchased from the American Tissue Culture Collection. BV2 were cultured in RPMI media containing gentamycin and supplemented with 10% fetal bovine serum (FBS) for expansion and 5% FBS when plated for experiments. All cells were from between passage numbers 39 and 45. Cells were plated at […] and treated 24 hours after plating with phosphate buffered saline (PBS, as a control) or interleurkin-1B+interferon-γ (IL-1B+IFNγ, to induce inflammation).
(§6) Microglia media harvested following treatment initiation was centrifuged briefly to remove particulates (300 g for 10 min). Cytokine and chemokine levels in the microglial media were measured using a Bio-Plex 200 with a 96-well magnetic plate assay according to the manufacturer's instructions (Bio-Rad). Cytokines and chemokines measured included IL-1α, IL-1β, IL-2, IL-6, IL-10, IL-12 (p70), IL-13, G-CSF, GM-CSF, IFNγ, TNFα, CXCL1 (KC), CCL2 (MCP-1), and CCL5 (RANTES). All samples were run in duplicate that were averaged for analysis, at least three samples per group were run.

IL-6 = IL-6 release from BV2 microglia, celecoxib combination (Example 7); type: cell-based; details: Celebrex 5 uM; NTI164 7.5 uM (as headed); combination Celebrex 5 uM + NTI164 7.5 ug/ml; activated control 366.33
Protocol: as §5, §6

IL-1a = IL-1a release from BV2 microglia, celecoxib combination (Example 7); type: cell-based; details: Celebrex 5 uM; NTI164 7.5 uM (as headed); combination Celebrex 5 uM + NTI164 7.5 ug/ml; activated control 154.83
Protocol: as §5, §6

GM-CSF = GM-CSF release from BV2 microglia, celecoxib combination (Example 7); type: cell-based; details: Celebrex 5 uM; NTI164 7.5 uM (as headed); combination Celebrex 5 uM + NTI164 7.5 ug/ml; activated control 768.13
Protocol: as §5, §6

TNF-ALPHA [9] = experiment: TNF-alpha in microglial culture media, psylocibin combination (Example 9); type: cell-based; details: PBS control 1.00, positive activation I&I 10.67
Protocol: Microglia media harvested following treatment initiation was centrifuged briefly to remove particulates (300 g for 10 min). The level of TNFα in the microglial culture media was measured using a Bio-Plex 200 with a 96-well magnetic plate assay according to the manufacturer's instructions (Bio-Rad). The samples were run in duplicate that were averaged for analysis. At least three samples per group were run.

[10] = in vitro, at low concentrations
[11] = NTI164 oil, room temperature, Day 14

Structure (SMILES) | Cannabinoid content of NTI164, Day 14 [8] [mg/mL] | Cannabinoid content of NTI164, Day 0 ([8]; NTI164 oil, room temperature) [mg/mL] | Cannabinoid content of NTI164, Day 2 ([8]; NTI164 oil, room temperature) [mg/mL] | Cannabinoid content of NTI164, Day 7 ([8]; NTI164 oil, room temperature) [mg/mL] | Cannabinoid content of NTI164, Day 28 ([8]; NTI164 oil, room temperature) [mg/mL] | Cannabinoid content of NTI164, Week 5 ([8]; NTI164 oil, room temperature) [mg/mL] | Cannabinoid content of NTI164, Week 6 ([8]; NTI164 oil, room temperature) [mg/mL] | Cannabinoid content of NTI164, Week 32 ([8]; NTI164 oil, room temperature) [mg/mL] | further results
C=C(C)[C@@H]1CCC(C)=C[C@H]1c1c(O)cc(CCCCC)cc1O [CBD, Cannabidiol] | 0.56 | 0.46 | 0.56 | 0.53 | 0.54 | 0.60 | 0.51 | 0.48 | Toxicity / effect on cell number and cell viability [1]: toxic in this paradigm; COX-2 expression, average +/- SEM, exposure after inflammatory insult (COX-2 [2]; exposure 1 hour after inflammatory insult (interleukin and interferon gamma), control 104.26): 76.32 +/− 7.95 (SEM); COX-2 expression, average +/- SEM, exposure before inflammatory insult (COX-2 [2]; exposure 1 hour prior to inflammatory insult (interleukin and interferon gamma), control 94.47): 84.82 +/− 7.65 (SEM); IL-12, average +/- SD (IL-12): 84.40 +/− 6.54; TNF-alpha, average +/- SD (TNF-alpha [3]): 71.13 +/− 12.81; COX-2 activity, individual replicate (COX-2 [4]; 1 hr after treatment): 42.4 and 44.92 and 109.99 and 136.99 and 117.84 and 43.14 and 77.81 and 59.02 and 73.8; COX-2 activity, mean (COX-2 [4]; activated control mean 101.39): 78.43; Cell death by DAPI cell viability stain (human microglial cells): DAPI cell viability stain: No cell death was detected and assessed as per the DAPI cell staining method.; Allosteric modulation of CB1 [5]: negative allosteric modulator of CB1; Affinity for CB1 ([5]; compared to Δ9-THC): low affinity; CB1 antagonistic effect [5, 10]: weak CB1 and CB2 antagonistic effect; Allosteric modulation of CB1 ([5]; listed as Cannabidiol): negative allosteric modulator of the cannabinoid CB1 receptor; Affinity for CB2 ([6]; compared to Δ9-THC): low affinity; CB2 antagonistic effect [6, 10]: weak CB1 and CB2 antagonistic effect; Neutrophil chemotaxis and proliferation (neutrophil): inhibit neutrophil chemotaxis and proliferation; Oral bioavailability [7]: 13-19%
Cc1ccc(-c2cc(C(F)(F)F)nn2-c2ccc(S(N)(=O)=O)cc2)cc1 [Celebrex, celecoxib] |  |  |  |  |  |  |  |  | TNF-a (TNF-a): 30.17; IL-6 (IL-6): 128.50; IL-1a (IL-1a): 112.5; GM-CSF (GM-CSF): 511.97
CCCCCc1cc(O)c(C/C=C(\C)CCC=C(C)C)c(O)c1 [Cannabigerol (CBG), Cannabigerol] |  | 5.21 | 5.23 | 5.14 | 5.1 | 5.30 | 5.28 | 5.12 | Cannabinoid content of NTI164, Day 14 [8, 11]: 5.1 mg/mL
CN(C)CCc1c[nH]c2cccc(OP(=O)(O)O)c12 [SubP (Psylocibin), Psylocibin] |  |  |  |  |  |  |  |  | TNF-alpha assessment result (TNF-ALPHA [9]; 1 ug/ml): 4.87; TNF-alpha assessment result (TNF-ALPHA [9]; 5 ug/ml): 9.17
CCCCCc1cc(O)c2c(c1)OC(C)(C)[C@@H]1CCC(C)=C[C@@H]21 [Tetrahydrocannabinol (D9-THC), Delta-9-tetrahydrocannabinol] |  | <0.1 | <0.1 | <0.1 | <0.1 | 0.14 | <0.1 | 0.11 | Cannabinoid content of NTI164, Day 14 [8, 11]: <0.1 mg/mL
CCCCCc1cc2c(c(O)c1C(=O)O)[C@@H]1C=C(C)CC[C@H]1C(C)(C)O2 [(Tetrahydrocannabinolic acid) (D9-THCA), Delta-9-tetrahydrocannabinolic acid] | 0.69 | 0.66 | 0.72 | 0.64 | 0.36 | 0.79 | 0.73 | <0.1 | 
CCCCCc1cc(O)c2c(c1)OC(C)(C)c1ccc(C)cc1-2 [Cannabinol (CBN), Cannabinol] | 2.33 | 2.32 | 2.54 | 2.48 | 2.56 | 2.22 | 2.27 | 2.21 | 
